Measurements: patent US4190674A, “3-Fluoro-N-cyclopropylcinnamide” (Burroughs Wellcome Co., priority 1977, dated 1980)

Columns and labels:
Format in all cases: in vivo
rat = experiment: Maximal Electroschock Test (MES), rat; details: ip
Text: (§1) 1. Maximal Electroschock Test (MES) in mice, a method described by Woodbury and Davenport, Arch int. Pharmacodyn. Ther. 92, P. 97-107 (1952).
(§2) In the MES pharmacological test referred to hereinbefore, the stated compounds had the given ED50 when administered i.p. to mice or rats as appropriate.

muscle tone = experiment: Muscle tone in mammals (general statement); details: in words
mice = experiment: Maximal Electroschock Test (MES) in mice; details: Mus musculus, ip
Text: as §1, §2

[1] = system: polysynaptic reflex contractions; experiment: Muscle Relaxant Activity: polysynaptic reflex contractions in the cat; details: oral dose of from 100-150 mg/kg
Procedure: (§3) The effect of trans 3-fluoro-N-cyclopropylcinnamamide as a centrally acting muscle relaxant was determined using a method based on that described in Berger, F. M. & Bradley, W. (Br. J. Pharmac. Chemother, (1946), 1, 265-272) and Crankshaw, D. P. & Raper, C. (Br. J. Pharmac. (1970), 38, 148-156).

[2] = system: monosynaptic kneed-jerk reflex; experiment: Muscle Relaxant Activity: monosynaptic knee-jerk reflex in the cat; details: oral dose of from 100-150 mg/kg
Procedure: as §3

Question: Which ED50 (rat) does the source give for `O=C(/C=C/c1cccc(C(F)(F)F)c1)NC1CC1` [Trans 3-Trifluoromethyl-N-Cyclopropylcinnamamide] here?
Answer: 56 mg/kg

Question: `O=C(/C=C/c1cccc(F)c1)NC1CC1` [formula (IA), 3-fluoro-N-cyclopropylcinnamamide] was tested. Which muscle tone (muscle tone) did it give?
Answer: decreases muscle tone in mammals

Question: For `O=C(/C=C/c1cccc(Br)c1)NC1CC1` [trans 3-bromo-N-cyclopropylcinnamamide, Trans 3-Bromo-N-cyclopropylcinnamamide], which ED50 (mice) is on record?
Answer: 77 mg/kg

Question: How did the polysynaptic reflex contractions [1] turn out when `O=C(/C=C/c1cccc(F)c1)NC1CC1` [trans 3-fluoro-N-cyclopropylcinnamamide, Trans 3-Fluoro-N-cyclopropylcinnamamide] was run?
Answer: suppressed polysynaptic reflex contractions

Question: What about the monosynaptic kneed-jerk reflex [2] of the same compound?
Answer: without affecting the monosynaptic kneed-jerk reflex

Question: What about the ED50 (mice) of the same compound?
Answer: 60 mg/kg
